Data taken from publication PMC11302589 (Organic & biomolecular chemistry, 2012).

Tests used:
[1] = target: T1, β-galactosidase (Aspergillus oryzae, UniProt Q2UCU3); format: biochemical
T1 sequence (Q2UCU3 19-1005): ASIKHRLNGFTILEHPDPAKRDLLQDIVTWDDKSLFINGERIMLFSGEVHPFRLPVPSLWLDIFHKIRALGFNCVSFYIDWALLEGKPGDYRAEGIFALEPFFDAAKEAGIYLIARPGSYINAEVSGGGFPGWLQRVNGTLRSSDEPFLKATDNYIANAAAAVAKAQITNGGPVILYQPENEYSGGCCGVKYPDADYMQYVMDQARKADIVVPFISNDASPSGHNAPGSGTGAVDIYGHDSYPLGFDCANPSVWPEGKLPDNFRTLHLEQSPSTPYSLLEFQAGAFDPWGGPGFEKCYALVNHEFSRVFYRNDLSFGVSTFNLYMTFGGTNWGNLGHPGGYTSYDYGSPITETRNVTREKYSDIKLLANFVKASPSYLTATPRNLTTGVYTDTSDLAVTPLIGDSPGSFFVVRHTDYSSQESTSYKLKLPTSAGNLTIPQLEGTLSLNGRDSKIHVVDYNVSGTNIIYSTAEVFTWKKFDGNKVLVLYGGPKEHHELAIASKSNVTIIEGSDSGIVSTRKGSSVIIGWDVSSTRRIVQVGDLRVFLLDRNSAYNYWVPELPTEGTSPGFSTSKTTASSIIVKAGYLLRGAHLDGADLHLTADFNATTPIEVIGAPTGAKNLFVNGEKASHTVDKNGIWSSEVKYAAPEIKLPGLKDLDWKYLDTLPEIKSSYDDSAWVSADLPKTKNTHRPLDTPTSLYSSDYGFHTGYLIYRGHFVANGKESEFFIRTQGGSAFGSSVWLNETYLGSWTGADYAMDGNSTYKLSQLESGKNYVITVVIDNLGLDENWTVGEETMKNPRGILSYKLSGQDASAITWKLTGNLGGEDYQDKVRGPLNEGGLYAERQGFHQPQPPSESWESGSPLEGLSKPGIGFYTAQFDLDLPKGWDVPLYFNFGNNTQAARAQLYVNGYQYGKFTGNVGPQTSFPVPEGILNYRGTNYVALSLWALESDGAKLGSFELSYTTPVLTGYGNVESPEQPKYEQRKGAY

[2] = target: Streptococcus pneumoniae sialidase NanB (Streptococcus pneumoniae serotype 4, UniProt Q54727); experiment: biochemical
[3] = target: Salmonella typhimurium sialidase (Salmonella typhimurium, UniProt P29768); experiment: biochemical
[4] = target: Vibrio cholerae sialidase (type III) (Vibrio cholerae serotype O1, UniProt P0C6E9); experiment: biochemical; format: biochemical; conditions: for IC50: V. cholerae
[5] = target: human cytosolic sialidase NEU2 (Homo sapiens, UniProt Q9Y3R4); experiment: biochemical; format: biochemical; conditions: for IC50: IC50 with Neu5Acα2–3GalβpNP as sialidase substrate, NEU2
[6] = IC50 with Neu5Acα2–3GalβpNP as sialidase substrate
[7] = IC50 with Neu5Acα2–6GalβpNP as sialidase substrate

Vibrio cholerae sialidase (type III), sequence (P0C6E9 25-781 limits assumed): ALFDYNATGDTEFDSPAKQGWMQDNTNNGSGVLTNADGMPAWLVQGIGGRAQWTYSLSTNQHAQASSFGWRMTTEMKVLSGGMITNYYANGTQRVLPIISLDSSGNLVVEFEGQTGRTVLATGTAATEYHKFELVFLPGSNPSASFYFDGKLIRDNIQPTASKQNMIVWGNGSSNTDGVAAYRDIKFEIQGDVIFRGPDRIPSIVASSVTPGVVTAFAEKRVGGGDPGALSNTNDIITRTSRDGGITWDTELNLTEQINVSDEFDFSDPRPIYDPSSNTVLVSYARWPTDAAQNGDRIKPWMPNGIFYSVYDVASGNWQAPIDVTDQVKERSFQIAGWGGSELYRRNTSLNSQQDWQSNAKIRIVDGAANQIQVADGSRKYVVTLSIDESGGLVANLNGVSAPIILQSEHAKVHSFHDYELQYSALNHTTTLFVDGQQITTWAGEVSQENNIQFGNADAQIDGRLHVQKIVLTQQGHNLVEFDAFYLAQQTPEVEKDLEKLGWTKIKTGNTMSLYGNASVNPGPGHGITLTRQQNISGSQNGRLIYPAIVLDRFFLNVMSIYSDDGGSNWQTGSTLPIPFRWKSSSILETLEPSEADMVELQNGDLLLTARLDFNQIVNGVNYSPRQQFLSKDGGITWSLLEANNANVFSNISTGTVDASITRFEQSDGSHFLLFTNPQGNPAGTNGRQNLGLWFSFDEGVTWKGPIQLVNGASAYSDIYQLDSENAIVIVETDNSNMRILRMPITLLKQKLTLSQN
human cytosolic sialidase NEU2, sequence (Q9Y3R4 whole entry): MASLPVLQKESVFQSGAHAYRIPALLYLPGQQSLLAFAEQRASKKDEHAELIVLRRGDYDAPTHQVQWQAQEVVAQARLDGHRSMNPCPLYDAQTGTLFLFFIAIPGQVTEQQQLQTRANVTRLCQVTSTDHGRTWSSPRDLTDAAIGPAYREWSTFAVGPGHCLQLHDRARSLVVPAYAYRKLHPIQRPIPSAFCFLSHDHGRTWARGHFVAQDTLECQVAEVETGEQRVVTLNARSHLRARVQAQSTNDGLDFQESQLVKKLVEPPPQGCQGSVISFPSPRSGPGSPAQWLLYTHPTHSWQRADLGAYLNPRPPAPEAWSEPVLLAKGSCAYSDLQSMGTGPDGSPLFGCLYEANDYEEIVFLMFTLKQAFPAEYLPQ
Salmonella typhimurium sialidase, sequence (P29768 whole entry): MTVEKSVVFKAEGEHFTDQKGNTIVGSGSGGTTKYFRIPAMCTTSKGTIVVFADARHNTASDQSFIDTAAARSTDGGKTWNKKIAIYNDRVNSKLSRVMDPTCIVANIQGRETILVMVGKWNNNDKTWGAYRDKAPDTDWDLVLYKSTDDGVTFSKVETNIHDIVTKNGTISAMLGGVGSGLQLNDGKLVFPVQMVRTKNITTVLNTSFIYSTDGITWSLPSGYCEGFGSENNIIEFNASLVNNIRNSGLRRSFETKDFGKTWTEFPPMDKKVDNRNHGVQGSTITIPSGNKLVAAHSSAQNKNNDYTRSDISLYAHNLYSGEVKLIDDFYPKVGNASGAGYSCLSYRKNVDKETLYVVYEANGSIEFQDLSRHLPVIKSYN
Streptococcus pneumoniae sialidase NanB, sequence (Q54727 30-697): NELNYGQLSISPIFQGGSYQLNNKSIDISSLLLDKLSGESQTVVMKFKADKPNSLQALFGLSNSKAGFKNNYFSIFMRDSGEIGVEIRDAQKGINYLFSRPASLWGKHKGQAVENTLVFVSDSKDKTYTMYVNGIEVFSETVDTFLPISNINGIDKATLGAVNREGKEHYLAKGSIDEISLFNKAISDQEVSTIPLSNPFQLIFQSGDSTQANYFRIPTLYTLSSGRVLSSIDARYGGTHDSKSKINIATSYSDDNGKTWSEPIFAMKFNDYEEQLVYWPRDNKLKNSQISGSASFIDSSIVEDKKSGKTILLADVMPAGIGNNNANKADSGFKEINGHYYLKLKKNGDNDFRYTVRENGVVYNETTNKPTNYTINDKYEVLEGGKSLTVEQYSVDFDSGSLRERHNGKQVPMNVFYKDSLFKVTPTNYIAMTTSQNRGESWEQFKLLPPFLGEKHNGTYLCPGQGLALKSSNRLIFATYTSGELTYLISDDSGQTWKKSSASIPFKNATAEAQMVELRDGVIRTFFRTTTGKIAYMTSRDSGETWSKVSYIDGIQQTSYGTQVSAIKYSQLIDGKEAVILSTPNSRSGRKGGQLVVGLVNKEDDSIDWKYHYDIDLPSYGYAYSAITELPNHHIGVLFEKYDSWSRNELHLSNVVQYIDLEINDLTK

SMILES	inhibitory effect against β-galactosidase [1]	IC50 [2] [µM]	IC50 [3] [µM]	IC50 [4, 6] [µM]	IC50 [4, 7] [µM]	IC50 [5] [µM]	fold less efficient than Neu5Ac2en (1) against V. cholerae sialidase [4] [fold]	fold less efficient than Neu5Ac2en (1) against human NEU2 [5] [fold]	selectivity for V. cholerae sialidase among the five sialidases tested [4]
CC(=O)N[C@H]1[C@H]([C@H](O)[C@H](O)CO)OC(C(=O)O)=C[C@@H]1O [Neu5Ac2en (1), 2-deoxy-2,3-dehydro-N-acetylneuraminic acid, reference compound]	no inhibitory effect								
COC[C@@H](O)[C@@H](O)[C@@H]1OC(C(=O)O)=C[C@H](O)[C@H]1NC(C)=O [Neu5Ac9Me2en (6), 5-Acetamido-2,6-anhydro-3,5-dideoxy-9-O-methyl-D-glycero-D-galacto-non-2-enonic acid]	no inhibitory effect	3000	130	130	120	1100			
CC(=O)N[C@H]1[C@H]([C@H](O)[C@H](O)CN=[N+]=[N-])OC(C(=O)O)=C[C@@H]1O [Neu5Ac9N32en (3), 5-Acetamido-2,6-anhydro-9-azido-3,5,9-trideoxy-D-glycero-D-galacto-non-2-enonic acid]	no inhibitory effect	3300	210		8.7 ± 1	43 ± 2	2.3	2.4	
CCCNC[C@@H](O)[C@@H](O)[C@@H]1OC(C(=O)O)=C[C@H](O)[C@H]1NC(C)=O [Neu5Ac9NPro2en (7), 5-Acetamido-9-aminopropyl-2,6-anhydro-3,5,9-trideoxy-D-glycero-D-galacto-non-2-enonic acid]	no inhibitory effect	5400	2300	> 1000	> 1000				
[N-]=[N+]=NCC(=O)N[C@H]1[C@H]([C@H](O)[C@H](O)CN=[N+]=[N-])OC(C(=O)O)=C[C@@H]1O [Neu5AcN39N32en (5), 2,6-Anhydro-9-azido-5-(2-azidoacetamido)-3,5,9-trideoxy-D-glycero-D-galacto-non-2-enonic acid]	no inhibitory effect	> 1000	16000	140	110				
[N-]=[N+]=NC[C@@H](O)[C@@H](O)[C@@H]1OC(C(=O)O)=C[C@H](O)[C@H]1NC(=O)CO [Neu5Gc9N32en (4), 2,6-Anhydro-9-azido-3,5,9-trideoxy-5-(2-hydroxyacetamido)-D-glycero-D-galacto-non-2-enonic acid]	no inhibitory effect	> 10000	> 10000	18 ± 3	13 ± 2	150			selective inhibitor
